From patent US20090143430A1, “ERYTHROPOIETIN PRODUCTION ACCELERATOR” (Kowa Co., Ltd., priority 2002, published 2009)
Where a name gives a salt, the structure may show the parent alone.

What was measured:
Hep3B cells [1] = assay: EPO protein produced by Hep3B cells under hypoxia (1% O2), ELISA (Test Example 1); type: cell-based; conditions: 1% O2, 24 hrs
Experimental: (§1) Hep3B cells producing EPO under hypoxic condition were used. The cells were inoculated onto a 100 mm petri dish by 1.5-3.0×10^6. As a culture medium, 10 ml of Dulbecco's Modified Eagles' Medium (DMEM)/10% Fetal Calf Serum (FCS) was used. The next day, the culture medium was exchanged, and compound of Preparation Example 13 (final concentration: 100 nM) was added, then cells were cultured under 1% O2 at 37° C. for 24 hrs. Groups were prepared in which IL-1β (final concentration: 15 U/ml) or TNF-α (final concentration: 220 U/ml), of which EPO production suppressing action is known (Faquin W C, Schneider T J, Goldgerg M A, Blood, 79(8): 1987-94 (1992)), were used solely or in combination with compound of Preparation Example 13 (final concentration: 100 nM). […] The amount of EPO in the supernatant obtained after the culture was measured by ELISA (each group; n=3). The enhancer site and promoter site (144 bp) of a human EPO gene were linked to luciferase reporter vector, which was used for measuring the EPO promoter activity. The EPO promoter activity was evaluated as follows.
(§2) The data obtained were analyzed and evaluated by Student's t-test.

human EPO promoter = assay: EPO promoter activity, luciferase reporter in Hep3B cells, 1% O2 vs 21% O2 (Test Example 1); type: cell-based; conditions: 24 hrs
Experimental: as §1
1×10^6 Hep3B cells were inoculated on 30 mm petri dish (4 mL:DMEM/10% FCS), and a reporter gene (2 μg) as well as P-galactosidase gene (1 μg) as an internal standard were transfected into the cells by the lipofectin method. The next day, the culture medium was exchanged and the groups, whose group-composition was similar to the above (control group (containing no agents), IL-1β group (final concentration: 15 U/ml), TNF-α (final concentration: 220 U/ml), compound of Preparation Example 13 (final concentration: 100 nM), or a combination of compound of Preparation Example 13 and IL-1β or TNF-α) were cultured under 1% O2 or 21% O2 (as a control) at 37° C. for 24 hrs (for each group; n=4). The extract of the cells after cultured were prepared, then luciferase activity and β galactosidase activity were measured. The EPO promoter activity was expressed by the formula: […]
as §2

Hep3B cells [2] = assay: EPO produced in Hep3B cell culture medium under 1% oxygen, ELISA kit (Test Example 2); type: cell-based; conditions: 24 hrs, 100 nM, control 8.1
Experimental: Hep3B cells were inoculated by 1×10^6 on each of 6 cm dishes, and then cultured for 24 hrs. As a culture medium, 3 mL of DMEM/10% FCS was used. The culture medium was exchanged and the compounds of each of Preparation Examples 13, 23, 29, 36, and 114 were added such that the content thereof was 100 nM final concentration, and they were transferred into the atmosphere of 1% oxygen at 37° C. for further 24 hrs culture thereof. The supernatant of the culture was recovered, and the amount of EPO was measured by ELISA kit (product of Roche Diagnostics) (two cases in each group). Further, cell extract was prepared and protein amount was determined, and corrected it as production amount per protein amount. As a control, groups not containing the compounds are prepared.

anemia model mice = assay: In vivo mice anemia model with IL-1β or TNF-α suppressed EPO production (Test Example 3); parameters: species or system mouse
Experimental: ICR mice (available from CLEA Japan Inc.) were made to be anemia by taking blood samples by 0.3 mL at a time from the orbital vein of the mouse by use of a heparin-coated microcapillary by 4 times in every 12 hours from 2 days before administering the agents. Further, 1.67×10^4 unit/day of mouse IL-1β (Roche Diagnostics) or 3.33×10^5 unit/day of mouse TNF-α (Roche Diagnostics) was injected intraperitoneally on day 0-3 (the first day of administration of agents was defined as […]) to induce a suppressed condition of EPO production. To these mice, Preparation Example 13 compound dissolved in 50% polyethylene glycol solution was administered orally by 1 or 3 mg/kg/day on day 0-5. As a control, 50% polyethylene glycol solution was administered (each group; n=7-15). On day 3 and 6, 0.3 mL of blood was collected, and hematocrit (Ht) value, hemoglobin (Hb) concentration (Celltac a: NIHON KOHDEN), EPO amount (ELISA kit: Roche Diagnostics) were measured. Also, the blood was stained by methylene-blue, and smears were prepared to calculate Reticulocytes value.

[3] = day 3, IL-1β mice, compound 1 mg/kg/day
[4] = day 3, IL-1β mice, compound 3 mg/kg/day
[5] = day 3, IL-1β mice, compound oral 1 mg/kg/day
[6] = day 3, IL-1β mice, compound oral 3 mg/kg/day
[7] = day 3, TNF-α mice, compound 1 mg/kg/day
[8] = day 3, TNF-α mice, compound 3 mg/kg/day
[9] = day 3, TNF-α mice, compound oral 1 mg/kg/day
[10] = day 3, TNF-α mice, compound oral 3 mg/kg/day
[11] = day 6, IL-1β mice, compound oral 1 mg/kg/day
[12] = day 6, IL-1β mice, compound oral 3 mg/kg/day
[13] = day 6, TNF-α mice, compound oral 1 mg/kg/day
[14] = day 6, TNF-α mice, compound oral 3 mg/kg/day

## COc1ccc(N(Cc2cncc(-c3cc(OC)c(OC)c(OC)c3)c2)C2CCN(Cc3ccnc(-c4cc(OC)c(OC)c(OC)c4)c3)CC2)cc1 [Preparation Example 13, 4-[N-(4-methoxyphenyl)-N-[[5-(3,4,5-trimethoxyphenyl)pyridin-3-yl]methyl]amino]1-[[2-(3,4,5-trimethoxyphenyl)pyridin-4-yl]methyl]piperidine Trihydrochloride]
Hep3B cells [1]; compound 100 nM
  amount of the produced EPO protein relative to control: twice as much as the control
Hep3B cells [1]; compound 100 nM alone
  amount of the produced EPO protein: 829.8±119.0 mU/mg protein
Hep3B cells [1]; compound 100 nM in combination with IL-1β 15 U/ml
  amount of the produced EPO protein: 395.0±72.6 mU/mg protein
Hep3B cells [1]; compound 100 nM in combination with TNF-α 220 U/ml
  amount of the produced EPO protein: 284.8±24.2 mU/mg protein
Human EPO promoter; compound 100 nM alone
  human EPO promoter activity (HI): 46.1±5.9 fold
Human EPO promoter; compound 100 nM with IL-1β 15 U/ml
  human EPO promoter activity (HI): 45.5±7.1 fold
Human EPO promoter; compound 100 nM with TNF-α 220 U/ml
  human EPO promoter activity (HI): 49.5±5.4 fold
Hep3B cells [2]
  Increasing action of EPO production (amount of EPO per protein amount): 18.2 mU/mg Protein
Anemia model mice; [3]
  EPO amount in serum: 41.8±28.3 mU/mL
  reticulocyte value: 36.1±4.5%
Anemia model mice; [4]
  EPO amount in serum: 58.9±21.1 mU/mL
  reticulocyte value: 38.1±8.1%
Anemia model mice; [5]
  Hb amount: 12.7 ± 0.7 g/dL
  Ht value: 37.5±2.5%
Anemia model mice; [6]
  Hb amount: 12.6 ± 1.0 g/dL
  Ht value: 37.5±3.1%
Anemia model mice; [7]
  EPO amount in serum: 61.4±70.4 mU/mL
  reticulocyte value: 29.1±4.7%
Anemia model mice; [8]
  EPO amount in serum: 64.7±92.2 mU/mL
  reticulocyte value: 28.9±4.5%
Anemia model mice; [9]
  Hb amount: 12.8 ± 0.6 g/dL
  Ht value: 38.8±2.0%
Anemia model mice; [10]
  Hb amount: 13.1 ± 0.8 g/dL
  Ht value: 40.0±2.7%
Anemia model mice; [11]
  EPO amount in serum: 22.2±32.8 mU/mL
  Hb amount: 14.1 ± 1.1 g/dL
  Ht value: 42.6±2.5%
  reticulocyte value: 27.1±2.5%
Anemia model mice; [12]
  EPO amount in serum: 37.1±31.1 mU/mL
  Hb amount: 14.0 ± 0.9 g/dL
  Ht value: 43.3±2.8%
  reticulocyte value: 30.4±4.0%
Anemia model mice; [13]
  EPO amount in serum: 57.4±23.9 mU/mL
  Hb amount: 14.0 ± 0.6 g/dL
  Ht value: 43.3±2.5%
  reticulocyte value: 23.3±3.3%
Anemia model mice; [14]
  EPO amount in serum: 69.9±37.8 mU/mL
  Hb amount: 13.8 ± 0.5 g/dL
  Ht value: 43.2±2.2%
  reticulocyte value: 26.8±7.5%

## COc1cc(-c2cncc(CN(c3ccc(SC)cc3)C3CCN(Cc4ccnc(-c5cc(OC)c(OC)c(OC)c5)c4)CC3)c2)cc(OC)c1OC [Preparation Example 114]
Hep3B cells [2]
  Increasing action of EPO production (amount of EPO per protein amount): 14.9 mU/mg Protein

## TNF-α
Hep3B cells [1]; TNF-α 220 U/ml alone
  amount of the produced EPO protein: 180.8±24.6 mU/mg protein
Human EPO promoter; TNF-α 220 U/ml alone
  human EPO promoter activity (HI): 20.7±4.1 fold
Anemia model mice; day 3, TNF-α i.p. alone (control 13.8±0.6)
  Hb amount: 12.6 ± 0.7 g/dL
Anemia model mice; day 3, TNF-α i.p. alone (control 23.7±31.0)
  EPO amount in serum: 2.7±4.6 mU/mL
Anemia model mice; day 3, TNF-α i.p. alone (control 32.1±4.4)
  reticulocyte value: 14.2±3.4%
Anemia model mice; day 3, TNF-α i.p. alone (control 42.2±3.6)
  Ht value: 38.3±2.5%
Anemia model mice; day 6, TNF-α i.p. alone (control 14.8±0.8)
  Hb amount: 13.1 ± 0.5 g/dL
Anemia model mice; day 6, TNF-α i.p. alone (control 16.3±3.1)
  reticulocyte value: 9.4±3.3%
Anemia model mice; day 6, TNF-α i.p. alone (control 24.8±33.8)
  EPO amount in serum: 3.3±6.0 mU/mL
Anemia model mice; day 6, TNF-α i.p. alone (control 46.4±2.9)
  Ht value: 41.6±1.8%

## COc1cc(-c2cc(CN3CCC(N(Cc4ccnc(-c5cc(OC)c(OC)c(OC)c5)c4)c4ccc5c(c4)OCO5)CC3)ccn2)cc(OC)c1OC [Preparation Example 29, 4-[N-(3,4-methylenedioxyphenyl)-N-[[2-(3,4,5-trimethoxyphenyl)pyridin-4-yl]methyl]amino]-1-[[2-(3,4,5-trimethoxyphenyl)pyridin-4-yl]methyl]piperidine Trihydrochloride]
Hep3B cells [2]
  Increasing action of EPO production (amount of EPO per protein amount): 10.5 mU/mg Protein

## COc1cc(OC)cc(N(Cc2ccnc(-c3cc(OC)c(OC)c(OC)c3)c2)C2CCN(Cc3ccnc(-c4cc(OC)c(OC)c(OC)c4)c3)CC2)c1 [Preparation Example 23, 4-[N-(3,5-dimethoxyphenyl)-N-[[2-(3,4,5-trimethoxyphenyl)pyridin-4-yl]methyl]amino]-1-[[2-(3,4,5-trimethoxyphenyl)pyridin-4-yl]methyl]piperidine Trihydrochloride]
Hep3B cells [2]
  Increasing action of EPO production (amount of EPO per protein amount): 13.9 mU/mg Protein

## COc1cc(-c2cc(CN3CCC(N(C)Cc4ccnc(-c5cc(OC)c(OC)c(OC)c5)c4)CC3)ccn2)cc(OC)c1OC [Preparation Example 36, 4-[N-methyl-N-[[2-(3,4,5-trimethoxyphenyl)pyridin-4-yl]methyl]amino]-1-[[2-(3,4,5-trimethoxyphenyl)pyridin-4-yl]methyl]piperidine Tetrahydrochloride]
Hep3B cells [2]
  Increasing action of EPO production (amount of EPO per protein amount): 10.0 mU/mg Protein

B1: IL-1β: "IL-1β (final concentration: 15 U/ml) ... of which EPO production suppressing action is known"; "mouse IL-1β (Roche Diagnostics)" in vivo (protein, UniProt P10749 118-269, looked up)
Interleukin-1 beta: VPIRQLHYRLRDEQQKSLVLSDPYELKALHLNGQNINQQVIFSMSFVQGEPSNDKIPVALGLKGKNLYLSCVMKDGTPTLQLESVDPKQYPKKKMEKRFVFNKIEVKSKVEFESAEFPNWYISTSQAEHKPVFLGNNSGQDIIDFTMESVSS
Hep3B cells [1]; IL-1β 15 U/ml alone
  amount of the produced EPO protein: 233.3±19.4 mU/mg protein
Human EPO promoter; IL-1β 15 U/ml alone
  human EPO promoter activity (HI): 19.9±6.5 fold
Anemia model mice; day 3, IL-1β i.p. alone (control 13.8±0.6)
  Hb amount: 12.3 ± 0.8 g/dL
Anemia model mice; day 3, IL-1β i.p. alone (control 23.7±31.0)
  EPO amount in serum: 5.9±14.3 mU/mL
Anemia model mice; day 3, IL-1β i.p. alone (control 32.1±4.4)
  reticulocyte value: 15.4±3.5%
Anemia model mice; day 3, IL-1β i.p. alone (control 42.2±3.6)
  Ht value: 36.0±3.0%
Anemia model mice; day 6, IL-1β i.p. alone (control 14.8±0.8)
  Hb amount: 13.5 ± 0.5 g/dL
Anemia model mice; day 6, IL-1β i.p. alone (control 16.3±3.1)
  reticulocyte value: 12.2±2.0%
Anemia model mice; day 6, IL-1β i.p. alone (control 24.8±33.8)
  EPO amount in serum: 2.9±5.0 mU/mL
Anemia model mice; day 6, IL-1β i.p. alone (control 46.4±2.9)
  Ht value: 40.9±1.5%
